Test results from patent publication US4524067A, “Soybean saponins, and a method of isolating the same” (Osaka Chemical Laboratory Co., Ltd., priority 1979, dated 1985).
Like-named read-outs stand apart in the source and are kept apart here.

Legend:
[1] = Antioxidizing action for salad oil (lipid peroxide, Yagi's method); settings: 180° C. for 40 min.
Protocol: Salad oil: Product of Nisshin Seiyu Co., Ltd., Japan.
Test oils were prepared by using various kinds of saponin components which were added into the salad oil in the amounts of 1 mg/ml and 0.1 mg/ml. These test oils and a control oil containing no saponin component were heated at 180° C. for 40 minutes, while oxygen was being blown thereinto. After they were cooled, the quantities of the lipid peroxides formed in the oils were determined by the Yagi's method [K. Yagi, Biochemie.

[2] = Solubility; assay type: physicochemical
[3] = pH / acidity of aqueous solution; assay type: physicochemical
[4] = system: lipid peroxides in the liver; assay: Inhibition of formation of lipid peroxides in the liver of Adreamycin-treated mice; assay type: in vivo, mice (COF male); settings: n = 5
Protocol: (§1) It is widely known that Adreamycin, which is an oncostatic, inhibits the synthesis of DNA by combining therewith, and the metabolism of lipids in the heart to cause deposition of lipid peroxides therein, leading to miocardosis.
(§2) (1) The tests were conducted with groups of five COF male mice, five week old, weighing 20 to 25 g each. 15 mg/kg of Adreamycin (product of Kyowa Hakko Kogyo, Japan) were intraperitoneally injected into each mouse (0.15 ml of the medicine per 10 g of mouse weight).
(§3) The administration of each of the medicines to be tested as shown in Table 1 below was started one day prior to the administration of Adreamycin, and continued intraperitoneally for five days at a rate of 0.10 ml per 10 g of mouse weight. All the medicines tested were suspended or emulsified (only vitamin E) in a 0.9% physiological solution of sodium chloride, or a 0.9% physiological solution of sodium chloride containing 1% of Tween 80 immediately before they were applied. All the medicines tested were administered at noon every day, and Adreamycin was given three hours after the administration of the medicines tested. The saponin component of this invention was given in the amount of 1,000 mg/kg, 500 mg/kg, 125 mg/kg, 50 mg/kg, 25 mg/kg and 12.5 mg/kg, vitamin E in the amount of 1,000 mg/kg and 250 mg/kg, and vitamin B2 in the amount of 1,000 mg/kg, while a 0.9% physiological solution of sodium chloride was given to the mice of the control group.
(§4) (2) On the sixth day, each mouse was killed by dislocation of the cervical vertebrae, and its heart and liver were picked out immediately. After their wet weights were measured, a 2% homogenate was prepared with a 0.9% physiological solution of sodium chloride by a Potter homogenizer made of Teflon while it was being cooled with ice.
(§5) 0.5 ml of a 3% aqueous solution of sodium lauryl sulfate was added into 0.2 ml of the aforementioned 2% homogenate, and they were mixed together by shaking for 30 seconds. Then, 1.5 ml of an acetic acid buffer solution having a pH value of 3.6, and 1.5 ml of a 0.8% solution of thiobarbituric acid were added thereinto, followed by addition of distilled water to make a total of 4.0 ml. After the resulting solution was shaked vigorously for 30 seconds, it was heated at 95° C. for an hour in an oil bath, and cooled with flowing water for five minutes. Then, 1.0 ml of 0.2N hydrochloric acid and 5.0 ml of a mixed solution of n-butanol and pyridine (15:1) were added into the solution, and after it was shaked violently, it was subjected to centrifugal separation at 3,000 rpm for 15 minutes, whereby the top n-butanol layer was separated, and its fluorescence spectrum was measured by a spectrophotofluorometer (Ex 515 nm and Em 553 nm). […] The quantity of lipid peroxides was obtained by applying the working curve to the values as actually measured.
(§6) The rate of inhibition of the formation of lipid peroxides was obtained in accordance with the following equation to compare the effects of the various medicines tested, and the quantities thereof employed, as shown in Table 1: [formula] wherein A: the concentration of lipid peroxides in the group of mice to which no Adreamycin had been given;
(§7) D: the concentration of lipid peroxides in the groups of mice to which both Adreamycin and the medicines to be tested had been administered.
(§8) Note: The rate of inhibition by each dosage was calculated by comparison with the values shown for the respective test numbers in the control group (i.e., applying the values of C shown for the control group).

[5] = system: lipid peroxides in the heart; assay: Inhibition of formation of lipid peroxides in the heart of Adreamycin-treated mice; assay type: in vivo, mice (COF male); settings: for Lipid peroxide, heart / Rate of inhibition, heart: n = 5
Protocol: as §1, §2, §3, §4, §5, §6, §7, §8

[6] = system: formation of lipid peroxides; settings: prior art statement, cited from earlier work
[7] = prior art statement; cited from earlier work
[8] = prior art statement; cited from earlier work; remark: listed apart in the source

Question: Which results are given for C[C@@H]1O[C@@H](O[C@H]2[C@H](O[C@H]3[C@H](O[C@H]4CC[C@@]5(C)[C@@H](CC[C@]6(C)[C@@H]5CC=C5[C@@H]7CC(C)(C)C[C@@H](O)[C@]7(C)CC[C@]56C)[C@@]4(C)CO)O[C@H](C(=O)O)[C@@H](O)[C@@H]3O)OC[C@H](O)[C@@H]2O)[C@H](O)[C@H](O)[C@H]1O [Soyasaponin II, 3-O-[α-L-rhamnopyranosyl(1→2)-α-L-arabinopyranosyl(1→2)-β-D-glucuronopyranosyl]-soyasapogenol B]?
Answer: Quantity of lipid peroxide ([1]; 0.1 mg/ml): 46.3 nmol/mL; Rate of inhibition of increase in lipid peroxide ([1]; 0.1 mg/ml): 28.9%; Quantity of lipid peroxide ([1]; 1 mg/ml): 80.6 nmol/mL; Rate of inhibition of increase in lipid peroxide ([1]; 1 mg/ml): -37.2%

Question: Which results are given for CC1(C)C[C@H]2C3=CC[C@@H]4[C@@]5(C)CC[C@H](O[C@@H]6O[C@H](C(=O)O)[C@@H](O)[C@H](O)[C@H]6O[C@@H]6O[C@H](CO)[C@H](O)[C@H](O)[C@H]6O)[C@](C)(CO)[C@@H]5CC[C@@]4(C)[C@]3(C)CC[C@@]2(C)[C@H](O[C@@H]2OC[C@H](O)[C@H](O[C@@H]3O[C@H](CO)[C@@H](O)[C@H](O)[C@H]3O)[C@H]2O)[C@@H]1O [Soyasaponin A2, 3-O-[β-D-galactopyranosyl-(1→2)-β-D-glucuronopyranosyl]-22-O-[β-D-glucopyranosyl (1→3)-α-L-arabinopyranosyl]-soyasapogenol A]?
Answer: Solubility [2]: easily soluble in methanol, soluble in water, pyridine, dimethyl sulfoxide and ethanol, and insoluble in acetone, chloroform and ether; pH value of aqueous solution ([3]; 5 mg in 1 ml of water): 6; Quantity of lipid peroxide ([1]; 0.1 mg/ml): 60.0 nmol/mL; Rate of inhibition of increase in lipid peroxide ([1]; 0.1 mg/ml): 2.5%; Quantity of lipid peroxide ([1]; 1 mg/ml): 38.8 nmol/mL; Rate of inhibition of increase in lipid peroxide ([1]; 1 mg/ml): 43.4%

Question: For Cc1cc2nc3c(=O)[nH]c(=O)nc-3n(C[C@H](O)[C@H](O)[C@H](O)CO)c2cc1C [Vitamin B2, riboflavin], which “Lipid peroxide, liver” value ([4]; 1000 mg/kg i.p., test No. I) is on record?
Answer: 124.84 ± 10.26 nmol/g

Question: What about the “Rate of inhibition, liver” value ([4]; 1000 mg/kg i.p., test No. I) of the same molecule?
Answer: 21.28

Question: And the “Lipid peroxide, heart” value ([5]; 1000 mg/kg i.p., test No. I)?
Answer: 153.61 ± 11.12 nmol/g

Question: And the “Rate of inhibition, heart” value ([5]; 1000 mg/kg i.p., test No. I)?
Answer: 40.81

Question: And the “Power of inhibiting the formation of lipid peroxides” value ([6]; compared with vitamin E)?
Answer: extremely lower power of inhibiting the formation of lipid peroxides than vitamin E

Question: Which results are given for C[C@@H]1O[C@@H](O[C@H]2[C@H](O[C@H]3[C@H](O[C@H]4CC[C@@]5(C)[C@@H](CC[C@]6(C)[C@@H]5CC=C5[C@@H]7CC(C)(C)C[C@@H](O)[C@]7(C)CC[C@]56C)[C@@]4(C)CO)O[C@H](C(=O)O)[C@@H](O)[C@@H]3O)O[C@H](CO)[C@H](O)[C@@H]2O)[C@H](O)[C@H](O)[C@H]1O [Soyasaponin I, 3-O-[α-L-rhamnopyranosyl(1→2)-β-D-galactopyranosyl(1→2)-β-D-glucuronopyranosyl]-soyasapogenol B]?
Answer: Quantity of lipid peroxide ([1]; 0.1 mg/ml): 45.6 nmol/mL; Rate of inhibition of increase in lipid peroxide ([1]; 0.1 mg/ml): 30.3%; Quantity of lipid peroxide ([1]; 1 mg/ml): 10.6 nmol/mL; Rate of inhibition of increase in lipid peroxide ([1]; 1 mg/ml): 97.7%

Question: For COc1cccc2c1C(=O)c1c(O)c3c(c(O)c1C2=O)C[C@@](O)(C(=O)CO)C[C@@H]3O[C@H]1C[C@H](N)[C@H](O)[C@H](C)O1 [Adreamycin], which “Effect of Adreamycin on lipid peroxides” value ([5]; 15 mg/kg i.p., heart and liver, mice) is on record?
Answer: increases the lipid peroxides in the heart and liver

Question: Which “Quantity of lipid peroxide” value ([1]; 0.1 mg/ml) does the source give for CC1(C)C[C@@H](O)[C@]2(C)CC[C@]3(C)C(=CC[C@@H]4[C@@]5(C)CC[C@H](O[C@@H]6O[C@H](C(=O)O)[C@@H](O)[C@H](O)[C@H]6O[C@@H]6O[C@H](CO)[C@H](O)[C@H](O)[C@H]6O)[C@](C)(CO)[C@@H]5CC[C@]43C)[C@@H]2C1 [Soyasaponin III, 3-O-[β-D-galactopyranosyl(1→2)-β-D-glucuronopyranosyl]-soyasapogenol B] here?
Answer: 45.6 nmol/mL

Question: And the “Rate of inhibition of increase in lipid peroxide” value (shortened to “Rate of inhibition of increase”) ([1]; 0.1 mg/ml)?
Answer: 30.3%

Question: What about the “Quantity of lipid peroxide” value ([1]; 1 mg/ml) of the same molecule?
Answer: 8.8 nmol/mL

Question: And the “Rate of inhibition of increase” value ([1]; 1 mg/ml)?
Answer: 101.2%

Question: Which results are given for Cc1c(C)c2c(c(C)c1O)CCC(C)(CCCC(C)CCCC(C)CCCC(C)C)O2 (stereo not drawn) [Vitamin E, α-tocopherol]?
Answer: Storage in the body and side effects [7]: stored in the body for a long period of time, and produces side effects; Lipid peroxide, liver ([4]; 250 mg/kg i.p., test No. II): 76.90 ± 8.15 nmol/g; Rate of inhibition, liver ([4]; 250 mg/kg i.p., test No. II): 94.79; Lipid peroxide, liver ([4]; 1000 mg/kg i.p., test No. I): 89.27 ± 26.33 nmol/g; Rate of inhibition, liver ([4]; 1000 mg/kg i.p., test No. I): 75.95; Lipid peroxide, heart ([5]; 250 mg/kg i.p., test No. II): 86.34 ± 12.61 nmol/g; Rate of inhibition, heart ([5]; 250 mg/kg i.p., test No. II): 101.98; Lipid peroxide, heart ([5]; 1000 mg/kg i.p., test No. I): 106.87 ± 36.40 nmol/g; Rate of inhibition, heart ([5]; 1000 mg/kg i.p., test No. I): 82.61; Solubility [8]: insoluble in water and soluble in oil; Effectiveness for inhibiting the formation of lipid peroxides [6]: effective agent for inhibiting the formation of lipid peroxides

Question: With CC1(C)C[C@H]2C3=CC[C@@H]4[C@@]5(C)CC[C@H](O[C@@H]6O[C@H](C(=O)O)[C@@H](O)[C@H](O)[C@H]6O[C@@H]6O[C@H](CO)[C@H](O)[C@H](O)[C@H]6O[C@@H]6O[C@H](CO)[C@@H](O)[C@H](O)[C@H]6O)[C@](C)(CO)[C@@H]5CC[C@@]4(C)[C@]3(C)CC[C@@]2(C)[C@H](O[C@@H]2OC[C@H](O)[C@H](O[C@@H]3O[C@H](CO)[C@@H](O)[C@H](O)[C@H]3O)[C@H]2O)[C@@H]1O [Soyasaponin A1, 3-O-[β-D-glucopyranosyl(1→2)-β-D-galactopyranosyl-(1→2)-β-D-glucuronopyranosyl]-22-O-[β-D-glucopyranosyl(1→3)-α-L-arabinopyranosyl]-soyasapogenol A] as the molecule, how does the Solubility [2] read?
Answer: easily soluble in methanol, soluble in water, pyridine, dimethyl sulfoxide and ethanol, and insoluble in acetone, chloroform and ether

Question: And the “pH value of aqueous solution” value ([3]; 10 mg in 1 ml of water)?
Answer: 6

Question: And the “Quantity of lipid peroxide” value ([1]; 0.1 mg/ml)?
Answer: 22.5 nmol/mL

Question: And the “Rate of inhibition of increase” value ([1]; 0.1 mg/ml)?
Answer: 74.8%

Question: What about the “Quantity of lipid peroxide” value ([1]; 1 mg/ml) of the same molecule?
Answer: 13.8 nmol/mL

Question: And the “Rate of inhibition of increase” value ([1]; 1 mg/ml)?
Answer: 91.5%
